The results in this text go back to patent publication US20220370486A1, “COMBINATION TREATMENT OF SYSTEMIC FUNGAL INFECTIONS” (The Board of Trustees of the University of Illinois, priority 2019, published 2022).

One data set has as its system yeast. In words: Activity against yeast. In kind it is cell-based. An excerpt:
(§1) This key discovery opened a path to the rational development of a non-toxic AmB variant. To probe its predicted role in sterol binding, the hydroxyl group was synthetically deleted at the C2′ position on the mycosamine appendage.

Another data set relates to human red blood cells. As to the kind of experiment: Toxicity to human red blood cells. In kind it is cell-based.
Description: as §1
(§2) In each case, C2′epiAmB is non-toxic to human red blood cells, primary hREC, mice, and rats up to the highest dose tested.

The nature of data set [1]: Isothermal titration calorimetry (ITC) sterol binding.
Description: as §1
A practical 11-step synthesis of C2′epiAmB using a frontier site-selective acylation method was developed. Wilcock, B. C. et al., Nat Chem 2012, 4 (12), 996-1003; Uno, B. E. A synthesis enabled understanding of Amphotericin B leading to derivatives with improved therapeutic indices. University of Illinois at Urbana-Champaign, 2014. The sterol binding and cell killing activities was then determined.
On the technique in general: ITC needs no label: the signal is the heat of the interaction.

A further data set deals with primary hREC. As to the kind of experiment: Toxicity to primary hREC. The data set is classed as cell-based, human.
Description: as §1, §2

Each structure is given as a SMILES string.

Take `CC1C=CC=CC=CC=CC=CC=CC=CC(OC2CC(N)C(O)C(C)O2)CC2OC(O)(CC(O)CC(O)C(O)CCC(O)CC(O)CC(=O)OC(C)C(C)C1O)CC(O)C2C(=O)O` (centres unmarked) [C2′deOAmB]: in the data set on yeast, the activity against yeast result was “retained good activity”. In addition, the “toxicity to human red blood cells” value with human red blood cells is reported as “nontoxic”. Moreover, the “binding of ergosterol by ITC” value in data set [1] is on record as “bind ergosterol”. Besides, the “binding of cholesterol by ITC” value in data set [1] (within the detection limits of ITC) is listed as “not cholesterol”. Further, the “toxicity to primary hREC” value in the data set on primary hREC is recorded as “nontoxic”.
